# Experimental data reported in publication PMC2719767 (Bioorganic & medicinal chemistry, 2008).
# Counter-ions that a name gives are not always drawn.
# Assays:
# D2 receptor [1] = molecular target: T1, D2 receptor (Homo sapiens, UniProt P14416); assay: D2 receptor binding affinity, NIMH-PDSP
# D3 receptor = D3 receptor (Homo sapiens, UniProt P35462); assay: D3 receptor binding affinity, NIMH-PDSP
# D4 receptor [2] = molecular target: T2, D4 receptor (Homo sapiens, UniProt P21917); assay: D4 receptor binding affinity, NIMH-PDSP
# T2 sequence (P21917 1-419): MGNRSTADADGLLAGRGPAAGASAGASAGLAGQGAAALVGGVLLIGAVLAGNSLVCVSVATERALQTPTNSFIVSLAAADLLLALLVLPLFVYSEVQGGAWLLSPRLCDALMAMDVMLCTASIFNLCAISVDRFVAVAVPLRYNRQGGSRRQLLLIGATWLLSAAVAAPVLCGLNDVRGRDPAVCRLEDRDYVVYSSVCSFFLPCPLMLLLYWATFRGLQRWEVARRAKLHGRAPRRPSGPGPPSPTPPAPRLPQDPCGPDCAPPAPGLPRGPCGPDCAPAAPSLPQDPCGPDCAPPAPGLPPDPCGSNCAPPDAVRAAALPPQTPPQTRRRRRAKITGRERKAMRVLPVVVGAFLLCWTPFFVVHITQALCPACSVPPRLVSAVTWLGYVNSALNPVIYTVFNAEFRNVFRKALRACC
# D4 receptor [3] = molecular target: T2, D4 receptor; assay: D4 receptor binding affinity, Pfizer laboratories; settings: for D2/D4: Table 2, ratio of Ki values, Pfizer laboratories data
# D4 receptor [4] = molecular target: T2, D4 receptor; settings: cloned human D2-like receptors; ref [11]; cited from earlier work
# D2 receptor [5] = molecular target: T1, D2 receptor; settings: cloned human D2-like receptors; ref [11]; cited from earlier work
# D2 receptor [6] = molecular target: T1, D2 receptor; assay: D2 receptor binding affinity, Pfizer laboratories; settings: same assay procedure in the same laboratory
# [7] = Table 2, NIMH-PDSP data, MPA = Missed primary assay threshold of 50% inhibition
# T1 sequence (P14416 whole entry): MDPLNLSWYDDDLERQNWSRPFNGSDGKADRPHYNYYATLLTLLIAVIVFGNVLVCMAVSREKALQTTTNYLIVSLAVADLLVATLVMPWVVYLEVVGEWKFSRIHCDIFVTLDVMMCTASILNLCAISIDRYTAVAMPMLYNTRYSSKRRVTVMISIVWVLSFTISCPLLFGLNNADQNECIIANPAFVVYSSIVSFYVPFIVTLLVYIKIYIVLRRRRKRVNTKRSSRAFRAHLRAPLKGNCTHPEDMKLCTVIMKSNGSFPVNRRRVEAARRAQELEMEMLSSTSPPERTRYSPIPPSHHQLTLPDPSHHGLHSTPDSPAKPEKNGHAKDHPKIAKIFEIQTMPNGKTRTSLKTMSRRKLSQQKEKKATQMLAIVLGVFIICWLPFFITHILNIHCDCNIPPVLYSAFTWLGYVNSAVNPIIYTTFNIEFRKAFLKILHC
# D3 receptor, sequence (P35462 whole entry): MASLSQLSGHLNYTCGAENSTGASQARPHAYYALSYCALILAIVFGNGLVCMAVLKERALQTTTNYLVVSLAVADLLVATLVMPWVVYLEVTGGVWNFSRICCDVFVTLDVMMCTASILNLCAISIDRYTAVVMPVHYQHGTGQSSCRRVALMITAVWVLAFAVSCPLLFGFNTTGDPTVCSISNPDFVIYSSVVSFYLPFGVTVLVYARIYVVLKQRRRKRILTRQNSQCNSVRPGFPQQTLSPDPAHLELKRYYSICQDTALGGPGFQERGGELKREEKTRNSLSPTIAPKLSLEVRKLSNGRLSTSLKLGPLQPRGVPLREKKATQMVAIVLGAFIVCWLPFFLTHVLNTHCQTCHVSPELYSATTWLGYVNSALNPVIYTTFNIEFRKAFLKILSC
structure (smiles),measurement,setting,value
"OC1(c2ccc(Cl)cc2)CCN(Cc2c[nH]c3ncccc23)C1 (stereo not drawn) [Compound 13, 3-(4-chlorophenyl)-1-(1H-pyrrolo[2,3-b]pyridin-3-ylmethyl)pyrrolidin-3-ol]","Ki ± SEM, D2",D2 receptor [1]; [7],MPA
same,"Ki ± SEM, D3",D3 receptor; [7],MPA
"Clc1ccc(N2C3CCC2CN(Cc2c[nH]c4ncccc24)CC3)cc1 (stereo not drawn) [Compound 9, 3-[(1H-pyrrolo[2,3-b]pyridin-3-yl)methyl]-9-(4-chlorophenyl)-3,9-diazabicyclo[4.2.1]nonane]",D2/D4,D4 receptor [2],>17
same,Ki,D4 receptor [2],0.584 ± 0.115 µM
same,Ki,D2 receptor [1],> 10 µM
same,Ki,D3 receptor,0.335 ± 0.178 µM
"c1cnc(N2CCN(Cc3c[nH]c4ncccc34)CC2)nc1 [Compound 15, 3-{(4-(pyrimidin-2-yl)piperazin-1-yl)methyl}-1H-pyrrolo[2,3-b]pyridine]",D2/D4,D4 receptor [3],21
O=C(CCCN1CCN(c2ccc(Cl)cc2)CC1)c1ccc(F)cc1 [Compound 1],D4 selectivity,D4 receptor [4],15 fold
same,"fold D2 potency conferred by butyrophenone (compound 1 vs L745,870)",D2 receptor [5],< 4 fold
O=C(CCCN1CC2CC1N(c1ccc(Cl)cc1)C2)c1ccc(F)cc1 (stereo not drawn) [Compound 10],D2/D4,D4 receptor [3],0.33
"Clc1ccc(N2CCCN(Cc3c[nH]c4ncccc34)CC2)cc1 [Compound 7, 3-{[4-(4-chlorophenyl)-1,4-diazepan-1-yl]methyl}-1H-pyrrolo[2,3-b]pyridine, HCl]",fold lower affinity for the D4 receptor than compound 6,D4 receptor [3]; same assay procedure in the same laboratory,3 fold
same,fold lower affinity for the D2 receptor than compound 6,D2 receptor [6],7 fold
